In US9695155B2, “Herbicidal substituted pyrimidinyloxy benzene compounds” (E. I. DU PONT DE NEMOURS AND COMPANY, priority 2013, dated 2017):

Key:
velvetleaf [1] = assay: Test A postemergence; assay type: in vivo, Abutilon theophrasti; conditions: for Velvetleaf plant response rating: 125 g ai/ha
Summary of the method: (§1)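 Greenhouse pot test, loam/sand soil. Formulation: non-phytotoxic solvent mix plus surfactant. Pre: directed spray onto soil after sowing. Post: plants at 1–2 leaf, 2–10 cm. Rated visually vs untreated controls at ~10 d, 0 (no effect) to 100 (complete control).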

wheat [2] = assay: Test A postemergence; assay type: in vivo, Triticum aestivum; conditions: for Wheat plant response rating: 125 g ai/ha
Summary of the method: as §1

corn [3] = assay: Test A preemergence; assay type: in vivo, Zea mays; conditions: for Corn plant response rating (0 to 100 scale): 125 g ai/ha
Summary of the method: as §1

large (Lg) crabgrass [4] = assay: Test A preemergence; assay type: in vivo, Digitaria sanguinalis; conditions: for Crabgrass, Large plant response rating (0 to 100 scale): 125 g ai/ha
Summary of the method: as §1

corn [5] = assay: Test A postemergence; assay type: in vivo, Zea mays; conditions: for Corn plant response rating: 125 g ai/ha
Summary of the method: as §1

rice = assay: Test B flooded paddy test; assay type: in vivo, Oryza sativa; conditions: Flood, 250 g ai/ha; 0 to 100 scale where 0 is no effect and 100 is complete control
Summary of the method: (§2)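 Visual ratings on a 0 to 100 scale, where 100 means complete control, compared treated plants with controls after 13 to 15 days in a greenhouse. Treatment went into paddy water 3 cm deep over the soil, applied to plants at the 2-leaf stage.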

giant foxtail [6] = assay: Test A postemergence; assay type: in vivo, Setaria faberii; conditions: for Foxtail, Giant plant response rating: 125 g ai/ha
Summary of the method: as §1

barnyardgrass [7] = assay: Test A preemergence; assay type: in vivo, Echinochloa crus-galli; conditions: for Barnyardgrass plant response rating (0 to 100 scale, 0 is no effect, 100 is complete control): 125 g ai/ha
Summary of the method: as §1

sedge, umbrella = assay: Test B flooded paddy test; assay type: in vivo, Cyperus difformis; conditions: Flood, 250 g ai/ha; 0 to 100 scale where 0 is no effect and 100 is complete control
Summary of the method: as §2

Heteranthera limosa = assay: Test B flooded paddy test; assay type: in vivo; conditions: Flood, 250 g ai/ha; 0 to 100 scale where 0 is no effect and 100 is complete control
Summary of the method: as §2

morningglory [8] = assay: Test A preemergence; assay type: in vivo, Ipomoea spp.; conditions: for Morningglory plant response rating (0 to 100 scale): 125 g ai/ha
Summary of the method: as §1

wheat [9] = assay: Test A preemergence; assay type: in vivo, Triticum aestivum; conditions: for Wheat plant response rating (0 to 100 scale): 125 g ai/ha
Summary of the method: as §1

pigweed [10] = assay: Test A postemergence; assay type: in vivo, Amaranthus retroflexus; conditions: for Pigweed plant response rating: 125 g ai/ha
Summary of the method: as §1

pigweed [11] = assay: Test A preemergence; assay type: in vivo, Amaranthus retroflexus; conditions: for Pigweed plant response rating (0 to 100 scale): 125 g ai/ha
Summary of the method: as §1

barnyardgrass [12] = assay: Test A postemergence; assay type: in vivo, Echinochloa crus-galli; conditions: for Barnyardgrass plant response rating: 125 g ai/ha
Summary of the method: as §1

barnyardgrass [13] = assay: Test B flooded paddy test; assay type: in vivo, Echinochloa crus-galli; conditions: Flood, 250 g ai/ha; 0 to 100 scale where 0 is no effect and 100 is complete control
Summary of the method: as §2

giant foxtail [14] = assay: Test A preemergence; assay type: in vivo, Setaria faberii; conditions: for Foxtail, Giant plant response rating (0 to 100 scale): 125 g ai/ha
Summary of the method: as §1

morningglory [15] = assay: Test A postemergence; assay type: in vivo, Ipomoea spp.; conditions: for Morningglory plant response rating: 125 g ai/ha
Summary of the method: as §1

velvetleaf [16] = assay: Test A preemergence; assay type: in vivo, Abutilon theophrasti; conditions: for Velvetleaf plant response rating (0 to 100 scale): 125 g ai/ha
Summary of the method: as §1

large (Lg) crabgrass [17] = assay: Test A postemergence; assay type: in vivo, Digitaria sanguinalis; conditions: for Crabgrass, Large plant response rating: 125 g ai/ha
Summary of the method: as §1

[18] = 1000 g ai/ha, 0 to 100 scale, 0 no effect, 100 complete control
[19] = 1000 g ai/ha, 0 to 100 scale, 0 no effect, 100 complete control, approx. 10 days
[20] = 0 to 100 scale where 0 is no effect and 100 is complete control
[21] = 500 g ai/ha, 0 to 100 scale where 0 is no effect and 100 is complete control

Clc1cnc(Oc2ccccc2-n2ccnn2)nc1 [Compound 217]
Plant response rating, Velvetleaf (velvetleaf [1]; [18]): 100 | Plant response rating, Wheat (wheat [2]; [18]): 20 | Corn plant response rating (corn [3]; [19]): 0 | Crabgrass, Large plant response rating (large (Lg) crabgrass [4]; [19]): 100 | Plant response rating, Corn (corn [5]; [18]): 0 | Plant response rating, Rice (rice): 0 | Plant response rating, Foxtail, Giant (giant foxtail [6]; [18]): 50 | Barnyardgrass plant response rating (barnyardgrass [7]; [19]): 70 | Plant response rating, Sedge, Umbrella (sedge, umbrella): 0 | Plant response rating, Ducksalad (Heteranthera limosa): 0 | Morningglory plant response rating (morningglory [8]; [19]): 40 | Wheat plant response rating (wheat [9]; [19]): 0 | Plant response rating, Pigweed (pigweed [10]; [18]): 100 | Pigweed plant response rating (pigweed [11]; [19]): 100 | Plant response rating, Barnyardgrass (barnyardgrass [12]; [18]): 30 | Plant response rating, Barnyardgrass (barnyardgrass [13]): 0 | Foxtail, Giant plant response rating (giant foxtail [14]; [19]): 90 | Plant response rating, Morningglory (morningglory [15]; [18]): 90 | Velvetleaf plant response rating (velvetleaf [16]; [19]): 100 | Plant response rating, Crabgrass, Large (large (Lg) crabgrass [17]; [18]): 60

COc1cnc(Oc2cccc(C#N)c2-n2cc(Br)cn2)nc1 [Compound 218]
Velvetleaf plant response rating (velvetleaf [1]; [20]): 30 | Plant response rating, Velvetleaf (velvetleaf [1]; [21]): 100 | Wheat plant response rating (wheat [2]; [20]): 0 | Plant response rating, Wheat (wheat [2]; [21]): 20 | Corn plant response rating (0 to 100 scale) (corn [3]): 0 | Corn plant response rating (corn [3]; [21]): 0 | Crabgrass, Large plant response rating (0 to 100 scale) (large (Lg) crabgrass [4]): 80 | Crabgrass, Large plant response rating (large (Lg) crabgrass [4]; [21]): 100 | Corn plant response rating (corn [5]; [20]): 0 | Plant response rating, Corn (corn [5]; [21]): 40 | Plant response rating, Rice (rice): 0 | Foxtail, Giant plant response rating (giant foxtail [6]; [20]): 20 | Plant response rating, Foxtail, Giant (giant foxtail [6]; [21]): 70 | Barnyardgrass plant response rating (0 to 100 scale, 0 is no effect, 100 is complete control) (barnyardgrass [7]): 10 | Barnyardgrass plant response rating (barnyardgrass [7]; [21]): 70 | Plant response rating, Sedge, Umbrella (sedge, umbrella): 40 | Plant response rating, Ducksalad (Heteranthera limosa): 50 | Morningglory plant response rating (0 to 100 scale) (morningglory [8]): 0 | Morningglory plant response rating (morningglory [8]; [21]): 10 | Wheat plant response rating (0 to 100 scale) (wheat [9]): 0 | Wheat plant response rating (wheat [9]; [21]): 0 | Pigweed plant response rating (pigweed [10]; [20]): 90 | Plant response rating, Pigweed (pigweed [10]; [21]): 100 | Pigweed plant response rating (0 to 100 scale) (pigweed [11]): 100 | Pigweed plant response rating (pigweed [11]; [21]): 100 | Barnyardgrass plant response rating (barnyardgrass [12]; [20]): 30 | Plant response rating, Barnyardgrass (barnyardgrass [12]; [21]): 70 | Plant response rating, Barnyardgrass (barnyardgrass [13]): 0 | Foxtail, Giant plant response rating (0 to 100 scale) (giant foxtail [14]): 20 | Foxtail, Giant plant response rating (giant foxtail [14]; [21]): 100 | Morningglory plant response rating (morningglory [15]; [20]): 70 | Plant response rating, Morningglory (morningglory [15]; [21]): 90 | Velvetleaf plant response rating (0 to 100 scale) (velvetleaf [16]): 10 | Velvetleaf plant response rating (velvetleaf [16]; [21]): 50 | Crabgrass, Large plant response rating (large (Lg) crabgrass [17]; [20]): 50 | Plant response rating, Crabgrass, Large (large (Lg) crabgrass [17]; [21]): 70

Clc1cnc(Oc2cccc(Cl)c2-n2cc(Br)cn2)nc1 [Compound 219]
Velvetleaf plant response rating (velvetleaf [1]; [20]): 100 | Plant response rating, Velvetleaf (velvetleaf [1]; [21]): 100 | Wheat plant response rating (wheat [2]; [20]): 0 | Plant response rating, Wheat (wheat [2]; [21]): 70 | Corn plant response rating (0 to 100 scale) (corn [3]): 0 | Corn plant response rating (corn [3]; [21]): 10 | Crabgrass, Large plant response rating (0 to 100 scale) (large (Lg) crabgrass [4]): 100 | Crabgrass, Large plant response rating (large (Lg) crabgrass [4]; [21]): 100 | Corn plant response rating (corn [5]; [20]): 20 | Plant response rating, Corn (corn [5]; [21]): 70 | Plant response rating, Rice (rice): 0 | Foxtail, Giant plant response rating (giant foxtail [6]; [20]): 70 | Plant response rating, Foxtail, Giant (giant foxtail [6]; [21]): 90 | Barnyardgrass plant response rating (0 to 100 scale, 0 is no effect, 100 is complete control) (barnyardgrass [7]): 30 | Barnyardgrass plant response rating (barnyardgrass [7]; [21]): 90 | Plant response rating, Sedge, Umbrella (sedge, umbrella): 85 | Plant response rating, Ducksalad (Heteranthera limosa): 100 | Morningglory plant response rating (0 to 100 scale) (morningglory [8]): 0 | Morningglory plant response rating (morningglory [8]; [21]): 10 | Wheat plant response rating (0 to 100 scale) (wheat [9]): 0 | Wheat plant response rating (wheat [9]; [21]): 0 | Pigweed plant response rating (pigweed [10]; [20]): 100 | Plant response rating, Pigweed (pigweed [10]; [21]): 100 | Pigweed plant response rating (0 to 100 scale) (pigweed [11]): 100 | Pigweed plant response rating (pigweed [11]; [21]): 100 | Barnyardgrass plant response rating (barnyardgrass [12]; [20]): 50 | Plant response rating, Barnyardgrass (barnyardgrass [12]; [21]): 100 | Plant response rating, Barnyardgrass (barnyardgrass [13]): 0 | Foxtail, Giant plant response rating (0 to 100 scale) (giant foxtail [14]): 100 | Foxtail, Giant plant response rating (giant foxtail [14]; [21]): 100 | Morningglory plant response rating (morningglory [15]; [20]): 70 | Plant response rating, Morningglory (morningglory [15]; [21]): 100 | Velvetleaf plant response rating (0 to 100 scale) (velvetleaf [16]): 10 | Velvetleaf plant response rating (velvetleaf [16]; [21]): 20 | Crabgrass, Large plant response rating (large (Lg) crabgrass [17]; [20]): 90 | Plant response rating, Crabgrass, Large (large (Lg) crabgrass [17]; [21]): 100
